Tested on: gastric cancer (GC, including GEJ cancer) expressing EGFR and/or cMet
Assay: Phase 2a study of amivantamab monotherapy, gastric cancer cohort: response by RECIST Version 1.1, investigator judgement
Type: in vivo, human
Text: Approximately 30 participants with any expression level of EGFR, cMet, or both proteins are enrolled in each of the Phase 2a cohort. However, based on the priorexperiences investigating anti-EGFR andanti-cMet antibodies in gastroesophageal cancers, at least 20 participants expressing IHC 2+ or higher (defined as participants expressing EGFR IHC 2+ or above and/or cMet IHC 2+ or above) are enrolled. Additional enrollment in Phase 2a cohorts may be allowed to achieve this minimal enrollment.
This is an open-label, multicenter, multi-arm Phase 2 interventional study in participants with previously treated advanced or unresectable GC or EC who are 20 years or older (or the legal age of consent in the jurisdiction in which the study is taking place). Japanese participants with gastric/GEJ or EC who express varying degrees of EGFR, cMet, or both as determined by IHC locally or centrally are enrolled in the GC cohort or EC cohort.
The baseline disease assessments are performed as close as possible to the start of treatment, but no more than 28 days prior to the first dose. Subsequent assessments are performed at 6 weeks (+1 week) after initiation of study treatment administration, then every 6 weeks (±1 week) for the first 12 months and then every 12 weeks (±1 week) until objective radiographic disease progression. Timing for each disease assessment is relative to the first dose of study treatment administration, regardless of dose modifications, and continues until disease progression. Any other site at which new disease is suspected is also imaged.
For purposes of analysis, the following populations are defined: • (1) All Treated population: All participants who take at least 1 dose of study treatment; • (2) Response evaluable population: All participants who satisfy the following criteria: • Receive at least 1 dose of study treatment; • At least 2 post-baseline efficacy disease assessments, or discontinued treatment for any reason, or have disease progression/death prior to the second post-baseline disease assessment; • (3) Safety population: All participants who take at least 1 dose of study treatment; • (4) Pharmacokinetics population: All participants who receive at least 1 dose of study treatment and have at least 1 evaluable post-baseline measurement; • (5) Immunogenicity population: All participants who receive at least 1 dose of study treatment and have at least 1 evaluable post-baseline measurement.
The primary efficacy measure is ORR. Objective response rate is defined as the proportion of participants who achieve either CR or PR, determined by investigator assessment using RECIST Version 1.1. Confirmation of investigator-assessed ORR may be performed through IRC in the Phase 2b.
Disease Control Rate: Disease control rate is defined as the percentage of participants achieving complete or partial response or stable disease for at least 6 weeks as defined by RECIST Version1.1. The DCR and its 95% CI with Clopper-Pearson method are also calculated.
Next, response to treatment was evaluated. The “All Treated” patient population were patients who received at least 1 dose of study treatment.

[1] = all treated population, IHC 1+, N=5, 1,050/1,400 mg IV
[2] = all treated population, IHC 1+, N=5, 1,050/1,400 mg IV, number of participants
[3] = all treated population, IHC 2+, N=11, 1,050/1,400 mg IV
[4] = all treated population, IHC 2+, N=11, 1,050/1,400 mg IV, number of participants
[5] = all treated population, IHC 3+, N=9, 1,050/1,400 mg IV
[6] = all treated population, IHC 3+, N=9, 1,050/1,400 mg IV, number of participants
[7] = all treated population, IHC NA, N=4, 1,050/1,400 mg IV
[8] = all treated population, IHC NA, N=4, 1,050/1,400 mg IV, number of participants
[9] = all treated population, Total, N=29, 1,050/1,400 mg IV
[10] = all treated population, Total, N=29, 1,050/1,400 mg IV, number of participants
[11] = response evaluable population, IHC 1+, N=4, 1,050/1,400 mg IV
[12] = response evaluable population, IHC 1+, N=4, 1,050/1,400 mg IV, number of participants
[13] = response evaluable population, IHC 2+, N=11, 1,050/1,400 mg IV
[14] = response evaluable population, IHC 2+, N=11, 1,050/1,400 mg IV, number of participants
[15] = response evaluable population, IHC 3+, N=9, 1,050/1,400 mg IV
[16] = response evaluable population, IHC 3+, N=9, 1,050/1,400 mg IV, number of participants
[17] = response evaluable population, Total, N=24, 1,050/1,400 mg IV
[18] = response evaluable population, Total, N=24, 1,050/1,400 mg IV, number of participants

amivantamab
Disease control rate (CR + PR + SD) [1]: (20.0%) | Not Evaluable (NE) [1]: (40.0%) | Progressive Disease (PD) [1]: (40.0%) | Complete response (CR) [2]: 0 | Disease control rate (CR + PR + SD) [2]: 1 | Not Evaluable (NE) [2]: 2 | Objective response rate (CR + PR) [2]: 0 | Partial response (PR) [2]: 0 | Progressive Disease (PD) [2]: 2 | Disease control rate (CR + PR + SD) [3]: (9.1%) | Not Evaluable (NE) [3]: (9.1%) | Progressive Disease (PD) [3]: (81.8%) | Complete response (CR) [4]: 0 | Disease control rate (CR + PR + SD) [4]: 1 | Not Evaluable (NE) [4]: 1 | Objective response rate (CR + PR) [4]: 0 | Partial response (PR) [4]: 0 | Progressive Disease (PD) [4]: 9 | Disease control rate (CR + PR + SD) [5]: (44.4%) | Objective response rate (CR + PR) [5]: (11.1%) | Partial response (PR) [5]: (11.1%) | Progressive Disease (PD) [5]: (55.6%) | Complete response (CR) [6]: 0 | Disease control rate (CR + PR + SD) [6]: 4 | Not Evaluable (NE) [6]: 0 | Objective response rate (CR + PR) [6]: 1 | Partial response (PR) [6]: 1 | Progressive Disease (PD) [6]: 5 | Disease control rate (CR + PR + SD) [7]: (25.0%) | Progressive Disease (PD) [7]: (75.0%) | Complete response (CR) [8]: 0 | Disease control rate (CR + PR + SD) [8]: 1 | Not Evaluable (NE) [8]: 0 | Objective response rate (CR + PR) [8]: 0 | Partial response (PR) [8]: 0 | Progressive Disease (PD) [8]: 3 | Disease control rate (CR + PR + SD) [9]: (24.1%) | Not Evaluable (NE) [9]: (10.3%) | Objective response rate (CR + PR) [9]: (3.4%) | Partial response (PR) [9]: (3.4%) | Progressive Disease (PD) [9]: (65.5%) | Complete response (CR) [10]: 0 | Disease control rate (CR + PR + SD) [10]: 7 | Not Evaluable (NE) [10]: 3 | Objective response rate (CR + PR) [10]: 1 | Partial response (PR) [10]: 1 | Progressive Disease (PD) [10]: 19 | Disease control rate (CR + PR + SD) [11]: (25.0%) | Not Evaluable (NE) [11]: (25.0%) | Progressive Disease (PD) [11]: (50.0%) | Complete response (CR) [12]: 0 | Disease control rate (CR + PR + SD) [12]: 1 | Not Evaluable (NE) [12]: 1 | Objective response rate (CR + PR) [12]: 0 | Partial response (PR) [12]: 0 | Progressive Disease (PD) [12]: 2 | Disease control rate (CR + PR + SD) [13]: (9.1%) | Not Evaluable (NE) [13]: (9.1%) | Progressive Disease (PD) [13]: (81.8%) | Complete response (CR) [14]: 0 | Disease control rate (CR + PR + SD) [14]: 1 | Not Evaluable (NE) [14]: 1 | Objective response rate (CR + PR) [14]: 0 | Partial response (PR) [14]: 0 | Progressive Disease (PD) [14]: 9 | Disease control rate (CR + PR + SD) [15]: (44.4%) | Objective response rate (CR + PR) [15]: (11.1%) | Partial response (PR) [15]: (11.1%) | Progressive Disease (PD) [15]: (55.6%) | Complete response (CR) [16]: 0 | Disease control rate (CR + PR + SD) [16]: 4 | Not Evaluable (NE) [16]: 0 | Objective response rate (CR + PR) [16]: 1 | Partial response (PR) [16]: 1 | Progressive Disease (PD) [16]: 5 | Not Evaluable (NE) [17]: (8.3%) | Objective response rate (CR + PR) [17]: (4.2%) | Partial response (PR) [17]: (4.2%) | Progressive Disease (PD) [17]: (66.7%) | Complete response (CR) [18]: 0 | Disease control rate (CR + PR + SD) [18]: 6 | Not Evaluable (NE) [18]: 2 | Objective response rate (CR + PR) [18]: 1 | Partial response (PR) [18]: 1 | Progressive Disease (PD) [18]: 16

— US20240317866A1, “Use of Anti-EGFR/Anti-Met Antibody to Treat Gastric or Esophageal Cancer” (Janssen Biotech, Inc., priority 2022, published 2024)
